What was measured:
[1] = target: T1, HisACAT1/FLAG (recombinant hACAT1) (Homo sapiens, UniProt P35610, M1L); assay: Steady-state enzyme kinetics with fatty acyl-CoA as variable substrate, purified HisACAT1/FLAG; assay type: biochemical; details: constant, saturating cholesterol in CHAPS/PC mixed micelles
T1 construct: hACAT1 contains 550 amino acids; made in house
T1 sequence (P35610 1-550 M1L): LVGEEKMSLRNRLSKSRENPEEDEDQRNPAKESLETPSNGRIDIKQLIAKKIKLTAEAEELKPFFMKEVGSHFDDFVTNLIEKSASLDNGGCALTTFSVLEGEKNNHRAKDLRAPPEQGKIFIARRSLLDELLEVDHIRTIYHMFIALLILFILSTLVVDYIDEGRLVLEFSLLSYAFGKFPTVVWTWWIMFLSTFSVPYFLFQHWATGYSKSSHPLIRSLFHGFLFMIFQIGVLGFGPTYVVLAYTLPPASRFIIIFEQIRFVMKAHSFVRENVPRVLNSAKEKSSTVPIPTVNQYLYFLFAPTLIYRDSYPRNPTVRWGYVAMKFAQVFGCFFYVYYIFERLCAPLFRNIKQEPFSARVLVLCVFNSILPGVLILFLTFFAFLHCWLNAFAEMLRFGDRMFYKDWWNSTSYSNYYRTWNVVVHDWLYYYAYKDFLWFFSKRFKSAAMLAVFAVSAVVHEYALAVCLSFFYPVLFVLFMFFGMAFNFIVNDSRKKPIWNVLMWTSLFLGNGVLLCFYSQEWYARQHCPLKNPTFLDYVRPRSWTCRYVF
Protocol: To monitor enzyme activity during enzyme purification, the enzyme solubilized in the detergent CHAPS was assayed in preformed taurocholate/cholesterol/phosphatidylcholine (PC) mixed micelles as described previously (Chang, C. C. et al. 1998. J. Biol. Chem. 273:35132-35141), with a final concentration of taurocholate at 9.3 mM, PC at 11.2 mM, and cholesterol at 1.6 mM. The amount of mixed micelle solution was used to dilute the detergent presented in the enzyme preparation, so the final CHAPS/PC molar ratio was less than 0.4. The fatty acyl-CoA substrate saturation curves and cholesterol substrate saturation curves were performed under the same conditions as described previously (Chang, C. C. et al. 1998. supra).
Prior to conducting binding experiments, steady-state enzyme kinetic experiments were conducted using purified HisACAT1/FLAG as the enzyme source and either oleoyl- (18:1) CoA or stearoyl- (18:0) CoA as the variable substrate, at a constant, saturating level of cholesterol in the CHAPS/PC mixed micelles.

[2] = target: T1, HisACAT1/FLAG (recombinant hACAT1); assay: Ligand binding by change in intrinsic (tryptophan) fluorescence of HisACAT1/FLAG
From the text: Fluorescence measurements were generated using an ISS PC1 photocounting fluorescence spectrophotometer (model 90095). This instrument has continuously reproducible slits ranging from 0.4 to 32 nm band-pass. The excitation slit width was set at 2 nm. The wavelength for excitation was set at 295 nm in order to minimize the contribution of tyrosine residues to the fluorescence. Purified HisACAT1/FLAG was concentrated using 30K AMICON centrifugal filters such that the final concentration of the protein was 100-200 ng/μL (1.5-3 μM). Purified protein was stored at −80° C. until used. Unless stated otherwise, the fluorescence measurements were performed at pH 7.8 with 50 mM potassium phosphate, 0.5M KCl, and 8.13 mM CHAPS. Sterol (cholesterol, epicholesterol, coprostanol, and epicoprostanol) was prepared as CHAPS/PC/sterol mixed micelles (with CHAPS at 8.13 mM, PC at 4 mM, and with varying concentrations of sterols as indicated) and stored at 20° C. in the dark until usage. The fatty acyl-CoAs were dissolved in 20 mM sodium acetate at pH 6.4 as a 2 mM stock and stored at −80° C. until used. Before the experiment started, all reagents were kept on ice in the dark. To begin the experiment, 50 μL of mixed micelles without or with sterols was added into a HELLMA microcuvette with 3 mm light path. Twenty-five microliters of ACAT1 protein (in 8.13 mM CHAPS and 0.5 M KCl) was then added and rapidly mixed. Fluorescence was monitored within 15 seconds of adding the enzyme. The sample compartment of the instrument was maintained at 20° C. The fluorescence emission spectrum was scanned in 2 minutes between 310 and 410 nm. The differences in fluorescence intensity at 10 intervals within 325-335 nm were averaged in order to calculate the ΔF value between the ligated protein vs that of the unligated protein.
Binding studies were subsequently conducted by monitoring the effect of increasing concentrations of oleoyl-CoA on the intrinsic fluorescence of HisACAT1/FLAG. […] However, the maximal change in the peak of the spectrum was much smaller (5% with respect to the unliganded protein). […] The data was analyzed for a simple bimolecular dissociation equilibrium using the PRISM program.
Binding experiments were subsequently performed by monitoring the effect of increasing concentrations of cholesterol, from 10 to 600 μM, on the intrinsic fluorescence of HisACAT1/FLAG. […] It was estimated that the cholesterol concentration that caused half-maximal spectral change was 35 μM. […] The changes in the intrinsic fluorescence of ACAT1 caused by cholesterol, epicholesterol, coprostanol, or epicoprostanol as the ligand were also compared.

[3] = test system: lysohpospholipid acyltransferase (LPAT); details: cited from earlier work
[4] = fed to animals; cited from earlier work
[5] = test system: amyloid precursor protein (APP); details: animal models for AD; cited from earlier work

In the case of CCCCCCCC/C=C\CCCCCCCC(=O)SCCNC(=O)CCNC(=O)[C@H](O)C(C)(C)COP(=O)(O)OP(=O)(O)OC[C@H]1O[C@@H](n2cnc3c(N)ncnc32)[C@H](O)[C@@H]1OP(=O)(O)O [oleoyl-CoA], the “Vmax, fold higher than for stearoyl-CoA” value [1] is reported as 2.4 fold, the “maximal increase in fluorescence peak height with respect to unliganded ACAT1 protein” value ([2]; excitation 295 nm, peak 330 nm) is reported as “approximately 32%” and the Kd ([2]; simple bimolecular dissociation equilibrium, PRISM, read-out: dissociation constant) is reported as 1900 nM.
In the case of CCCCCCCCCCC(C)(C)C(=O)Nc1c(OC)cc(OC)cc1OC [CI976], the “inhibition of LPAT” value [3] is given as “has been shown to inhibit”.
For CC(C)c1cc(C(C)C)c(CC(=O)NS(=O)(=O)Oc2c(C(C)C)cccc2C(C)C)c(C(C)C)c1 [CI1011], the VLDL-triglyceride content [4] is listed as “reduces the VLDL-triglyceride content” and the “mature/immature ratio of human APP” value [5] is listed as “decreased”.
